Experimental data published in patent US12384753B2, “17-beta-hydroxysteroid dehydrogenase type 13 inhibitors and methods of use thereof” (Enanta Pharmaceuticals, Inc., priority 2021, dated 2025).

Molecular target: Recombinant human HSD17B13 (Homo sapiens (Human), UniProt Q7Z5P4)
Assay: HSD17B13 rapid-fire mass spectrometry assay (RF/MS assay)
Format: biochemical
Settings: inhibition of HSD17B13; LTB4 10 μM, NAD+ 0.5 mM, RT 3 h; IC50 ranges A-E
Summary of the method: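 Product 12-oxo-LTB4 and substrate LTB4 quantified by RapidFire triple-quad MS in negative mode, giving percent conversion. Reaction: 80 nM recombinant hHSD17B13, 10 μM LTB4, 0.5 mM NAD+, compound up to 100 μM, pH 7.5, RT, 3 h. Variable-slope fit gave IC50; run in duplicate.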

Chain of Recombinant human HSD17B13 (Q7Z5P4 20-300): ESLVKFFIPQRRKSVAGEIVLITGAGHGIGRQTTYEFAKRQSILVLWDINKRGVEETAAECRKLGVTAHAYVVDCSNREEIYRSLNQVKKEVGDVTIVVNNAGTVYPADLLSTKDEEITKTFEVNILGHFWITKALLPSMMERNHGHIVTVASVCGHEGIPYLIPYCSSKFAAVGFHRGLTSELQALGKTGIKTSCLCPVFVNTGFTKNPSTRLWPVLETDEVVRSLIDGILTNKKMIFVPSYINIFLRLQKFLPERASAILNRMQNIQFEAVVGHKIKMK

| SMILES | IC50 |
| --- | --- |
| CCCCOc1c(F)c(-c2nc(S(=O)(=O)Nc3cc(F)c(C(=O)O)cc3OC)cs2)ccc1[C@H]1CC[C@@H](C(C)C)CC1 [Example 588] | 100 to 500 nM |
| CCCCOc1c(F)c(-c2nc(S(=O)(=O)Nc3cc(F)c(C(=O)O)cc3OC)cs2)ccc1[C@H]1CC[C@H](C(C)C)CC1 [Example 589] | 100 to 500 nM |
| COc1cc(C(=O)O)c(F)cc1NS(=O)(=O)c1csc(-c2ccc(C3=CCC(C)(C)CC3)cc2C(F)F)n1 [Example 590] | < 100 nM |
| COc1cc(C(=O)O)c(F)cc1NS(=O)(=O)c1csc(-c2ccc(C3CCC(C)(C)CC3)cc2C(F)F)n1 [Example 591] | < 100 nM |
| COc1cc(C(=O)O)c(F)cc1NS(=O)(=O)c1csc(-c2ccc(C3CC4CCC3C4)cc2)n1 (stereo not shown) [Example 592] | 100 to 500 nM |
| COc1cc(C(=O)O)ccc1NS(=O)(=O)c1csc(-c2ccc([C@H]3CC[C@@H](C(F)(F)F)CC3)cc2)n1 [Example 608] | 100 to 500 nM |
| COc1cc(C(=O)O)ccc1NS(=O)(=O)c1coc(-c2ccc([C@H]3CC[C@@H](C(F)(F)F)CC3)cc2)n1 [Example 609] | < 100 nM |
| COc1cc(C(=O)O)ccc1NS(=O)(=O)c1coc(-c2ccc([C@H]3CC[C@H](C(F)(F)F)CC3)cc2)n1 [Example 610] | 100 to 500 nM |
| COc1cc(C(=O)O)c(F)cc1NS(=O)(=O)c1cccc(-c2ccc([C@H]3CC[C@H](C(C)(C)C)CC3)cc2)c1F [Example 612] | < 100 nM |
| COc1cc(C(=O)O)c(F)cc1NS(=O)(=O)c1ncc(-c2ccc(F)cc2)s1 [Example 614] | < 100 nM |
| CC[C@H]1CC[C@H](c2ccc(-c3cnc(S(=O)(=O)Nc4cc(F)c(C(=O)O)cc4OC)s3)cc2)CC1 [Example 615] | 100 to 500 nM |

Next, values leading:

| IC50 | SMILES |
| --- | --- |
| < 100 nM | COc1cc(C(=O)O)c(F)cc1NS(=O)(=O)c1csc(-c2ccc(C3=CCC(C(C)(C)C)CC3)c(OC(C)C)c2F)n1 (stereo not shown) [Example 593] |
| < 100 nM | COc1cc(C(=O)O)c(F)cc1NS(=O)(=O)c1csc(-c2ccc(C3=CCC(C(C)(C)C)CC3)c(F)c2C)n1 (stereo not shown) [Example 594] |
| 100 to 500 nM | COc1cc(C(=O)O)c(F)cc1NS(=O)(=O)c1csc(-c2ccc([C@H]3CC[C@@H](C(C)(C)C)CC3)c(F)c2C)n1 [Example 595] |
| < 100 nM | COc1cc(C(=O)O)c(F)cc1NS(=O)(=O)c1csc(-c2ccc([C@H]3CC[C@H](C(C)(C)C)CC3)c(F)c2C)n1 [Example 596] |
| < 100 nM | COc1cc(C(=O)O)c(F)cc1NS(=O)(=O)c1csc(-c2ccc([C@H]3CC[C@@H](C(C)(C)C)CC3)c(OC(C)C)c2F)n1 [Example 597] |
| 100 to 500 nM | COc1cc(C(=O)O)c(F)cc1NS(=O)(=O)c1csc(-c2ccc([C@H]3CC[C@H](C(C)(C)C)CC3)c(OC(C)C)c2F)n1 [Example 598] |
| < 100 nM | COc1cc(C(=O)O)c(F)cc1NS(=O)(=O)c1csc(-c2ccc(C3=CCC(C(F)(F)F)CC3)c(F)c2C)n1 (stereo not shown) [Example 599] |
| < 100 nM | COc1cc(C(=O)O)c(F)cc1NS(=O)(=O)c1csc(-c2ccc(C3=CCC(C(F)(F)F)CC3)c(OC)c2F)n1 (stereo not shown) [Example 600] |
| < 100 nM | COc1cc(C(=O)O)c(F)cc1NS(=O)(=O)c1csc(-c2ccc(C3=CCC(C(F)(F)F)CC3)cc2C(F)(F)F)n1 (stereo not shown) [Example 601] |
| < 100 nM | COc1cc(C(=O)O)c(F)cc1NS(=O)(=O)c1csc(-c2ccc([C@H]3CC[C@@H](C(F)(F)F)CC3)c(F)c2C)n1 [Example 602] |
| < 100 nM | COc1cc(C(=O)O)c(F)cc1NS(=O)(=O)c1csc(-c2ccc([C@H]3CC[C@H](C(F)(F)F)CC3)c(F)c2C)n1 [Example 603] |
| < 100 nM | COc1cc(C(=O)O)c(F)cc1NS(=O)(=O)c1csc(-c2ccc([C@H]3CC[C@H](C(F)(F)F)CC3)c(OC)c2F)n1 [Example 605] |
| < 100 nM | COc1cc(C(=O)O)c(F)cc1NS(=O)(=O)c1csc(-c2ccc([C@H]3CC[C@@H](C(F)(F)F)CC3)cc2C(F)(F)F)n1 [Example 606] |
| < 100 nM | COc1cc(C(=O)O)c(F)cc1NS(=O)(=O)c1csc(-c2ccc([C@H]3CC[C@H](C(F)(F)F)CC3)cc2C(F)(F)F)n1 [Example 607] |
